Measured values reported in publication PMC9847679, “The anti-breast cancer stem cell properties of gold(I)-non-steroidal anti-inflammatory drug complexes” (Chemical Science, 2022).
Like-named read-outs stand apart in the source and are kept apart here.

What was measured:
[1] = system: HMLER-shEcad mammospheres; test: Mammosphere viability assay (TOX8); assay type: cell-based, human; settings: Homo sapiens, 120 h, 5 days incubation
Description: Tumorsphere Formation and Viability Assay.
in ultralow-attachment 96-well plates (Corning) and incubated in MEGM supplemented with B27 (Invitrogen), 20 ng mL-1 EGF and 4 μg mL-1 heparin (Sigma) for 5 days. […] The viability of the mammospheres was determined by addition of a resazurin-based reagent, TOX8 (Sigma). After incubation for 16 h, the fluorescence of the solutions was read at 590 nm (λex = 560 nm). Viable mammospheres reduce the amount of the oxidised TOX8 form (blue) and concurrently increase the amount of the fluorescent TOX8 intermediate (red), indicating the degree of mammosphere cytotoxicity caused by the test compound. Fluorescence values were normalised to DMSO-containing controls and plotted as concentration of test compound versus % mammospheres viability. IC50 values were interpolated from the resulting dose dependent curves. The reported IC50 values are the average of three independent experiments, each consisting of two replicates per concentration level (overall n = 6).

[2] = system: HMLER-shEcad cells; test: Monolayer cytotoxicity (MTT assay), HMLER-shEcad cells; assay type: cell-based, human; settings: for IC50: 72 h incubation, MTT
From the text: (§1) Cell Lines and Cell Culture Conditions. The human mammary epithelial HMLER and HMLER-shEcad cell lines were kindly donated by Prof. R. A. Weinberg (Whitehead Institute, MIT). The human epithelial breast MCF10A, breast adenocarcinoma MDA-MB-231 and MDA-MB-468, murine epithelial breast 4T1, and embryonic kidney HEK 293 cell lines were acquired from American Type Culture Collection (ATCC, Manassas, VA, USA).
(§2) HMLER, HMLER-shEcad, and MCF10A cells were maintained in Mammary Epithelial Cell Growth Medium (MEGM) with supplements and growth factors (BPE, hydrocortisone, hEGF, insulin, and gentamicin/amphotericin-B). MDA-MB-231, MDA-MB-468, 4T1, and HEK 293 cells were maintained in Dulbecco's Modified Eagle's Medium (DMEM) supplemented with fetal bovine serum (10 %) and penicillin/streptomycin (1 %). The cells were grown at 310 K in a humidified atmosphere containing 5% CO2.
(§3) Monolayer Cytotoxicity Studies. Exponentially growing cells were seeded at a density of approximately 5 × 10^3 cells per well in 96-well flat-bottomed microplates and allowed to attach for 24 h prior to addition of compounds. Various concentrations of the test compounds (0.0004-100 μM) were added and incubated for 72 h at 37 °C (total volume 200 μl). Stock solutions of the compounds were prepared as 10 mM DMSO solutions and diluted using cell […]
(§4) media. The final concentration of DMSO in each well was ≤1 %. After 72 h, 20 μl of MTT (4 mg mL-1 in PBS) was added to each well and the plates incubated for an additional 4 h at 37 °C. The media/MTT mixture was eliminated and DMSO (100 μl per well) was added to dissolve the formazan precipitates. The optical density was measured at 550 nm using a 96-well multiscanner autoreader. Absorbance values were normalised to (DMSO-containing) control wells and plotted as concentration of test compound versus % cell viability. IC50 values were interpolated from the resulting dose dependent curves. The reported IC50 values are the average of three independent experiments (n = 18). […]
(§5) After incubation for 16 […]
(§6) h, the fluorescence of the solutions was read at 590 nm (λex = 560 nm). Viable mammospheres reduce the amount of the oxidised TOX8 form (blue) and concurrently increase the amount of the fluorescent TOX8 intermediate (red), indicating the degree of mammosphere cytotoxicity caused by the test compound. […]
(§7) Cellular Uptake. To measure the cellular uptake of 1-3 about 1 million HMLER-shEcad cells were treated with 1-3 (0.25 μM) at 37 °C for 24 h. After incubation, the media was removed, the cells were washed with PBS (2 mL × 3) and harvested. The number of cells was counted at this stage, using a haemocytometer. This mitigates any cell death induced by 1-3 at the administered concentration and experimental cell loss. The cellular pellets were dissolved in 65% HNO3 (250 µL) overnight. A cellular pellet of HMLER-shEcad cells treated with 1 was also used to determine the gold content in the nuclear, cytoplasmic and membrane fractions. The Thermo Scientific NE-PER Nuclear and Cytoplasmic Extraction Kit was used to extract and separate the nuclear, cytoplasmic and membrane fractions. The fractions were dissolved in 65% HNO3 (250 µL final volume) overnight. All samples were diluted 17-fold with water and analysed using inductively coupled plasma mass spectrometry (ICP-MS, Thermo Scientific ICAP-Qc quadrupole ICP mass spectrometer). Gold levels are expressed as mass of Au (ng) per million cells. Results are presented as the mean of four determinations for each data point.
(§8) Intracellular ROS Assay. […]

[3] = system: HMLER cells; test: Monolayer cytotoxicity (MTT assay), HMLER cells; assay type: cell-based, human; settings: for IC50: 72 h incubation, MTT
From the text: as §1, §2, §3, §4, §5, §6, §7, §8

[4] = system: HMLER-shEcad mammospheres; design: method as in PMID 26806362, PMID 31209956, PMID 28932846; settings: read-out: Mammosphere IC50; cited from earlier work
[5] = system: HMLER-shEcad cells; design: method as in PMID 26806362, PMID 31209956, PMID 28932846; settings: cited from earlier work
[6] = system: HMLER cells; design: method as in PMID 26806362, PMID 31209956, PMID 28932846; settings: cited from earlier work
[7] = target: T1, COX-2 (Ovis aries, UniProt P79208); test: COX-2 inhibition enzyme immunoassay (EIA); assay type: biochemical, ovine; settings: COX-2-catalysed conversion of arachidonic acid to prostaglandin, tested 1-250 μM
T1 construct: purchased Cayman Chemicals
T1 sequence (P79208 17-603): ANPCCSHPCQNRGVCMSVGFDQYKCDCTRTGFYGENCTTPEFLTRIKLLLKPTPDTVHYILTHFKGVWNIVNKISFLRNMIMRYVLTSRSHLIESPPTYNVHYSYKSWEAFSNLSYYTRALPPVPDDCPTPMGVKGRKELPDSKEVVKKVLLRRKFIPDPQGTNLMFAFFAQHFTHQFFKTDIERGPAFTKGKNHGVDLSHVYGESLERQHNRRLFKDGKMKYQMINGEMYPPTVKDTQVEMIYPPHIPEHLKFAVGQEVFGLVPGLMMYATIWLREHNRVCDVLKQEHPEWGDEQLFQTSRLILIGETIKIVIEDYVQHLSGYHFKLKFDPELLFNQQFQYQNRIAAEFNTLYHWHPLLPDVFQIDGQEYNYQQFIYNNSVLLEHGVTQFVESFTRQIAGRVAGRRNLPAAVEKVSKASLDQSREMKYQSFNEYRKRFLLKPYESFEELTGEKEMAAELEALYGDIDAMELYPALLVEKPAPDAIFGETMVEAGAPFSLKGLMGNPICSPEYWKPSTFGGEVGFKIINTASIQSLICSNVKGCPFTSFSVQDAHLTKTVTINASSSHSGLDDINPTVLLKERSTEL
Description: ice-cold methanol (for 30 min), and suspended in PBS (200 μL). […]
COX-2 Inhibition Enzyme Immunoassay (EIA). The COX-2 inhibitory properties of 1,
indomethacin, and ch loro(triphenylphosphine)gold(I) was determined using the “COX
(ovine) Inhibitor Screening Assay (Cayman Chemicals).” The assay was performed
according to the manuf acturer’s instructions using a 96-well plate set up.

SMILES: O=c1[nH]cc(F)c(=O)[nH]1 [5-Fluorouracil, 5-fluorouracil, reference compound]
- IC50 [1]: 15 ± 1 µM

SMILES: CCCCCOC(=O)Nc1nc(=O)n([C@@H]2O[C@H](C)[C@@H](O)[C@H]2O)cc1F [Capecitabine, capecitabine]
- IC50 ([2]; Homo sapiens): > 100 µM
- IC50 [1]: > 133 µM
- IC50 ([3]; Homo sapiens): > 100 µM

SMILES: N.N.O=C([O-])C1(C(=O)[O-])CCC1.[Pt+2] [Carboplatin, carboplatin]
- IC50 [4]: 18 ± 1 µM

SMILES: N.N.[Cl][Pt][Cl] [Cisplatin, cisplatin]
- IC50 [5]: 5.65 ± 0.304 µM
- IC50 [4]: 14 ± 2 µM
- IC50 [6]: 2.565 ± 0.021 µM

SMILES: CC[C@@H](C(=O)[C@@H](C)[C@@H](O)[C@H](C)[C@@H]1O[C@@H]([C@@H](CC)C(=O)O)CC[C@@H]1C)[C@H]1O[C@]2(C=C[C@@H](O)[C@]3(CC[C@@](C)([C@H]4CC[C@](O)(CC)[C@H](C)O4)O3)O2)[C@H](C)C[C@@H]1C [Salinomycin, salinomycin]
- IC50 [5]: 4.23 ± 0.35 µM
- IC50 [4]: 19 ± 2 µM

SMILES: CC(=O)OC[C@H]1O[C@@H]([S-])[C@H](OC(C)=O)[C@@H](OC(C)=O)[C@@H]1OC(C)=O.CCP(CC)CC.[Au+] [auranofin]
- IC50 [2]: 0.026 ± 0.005 µM
- fold more potent towards HMLER cells than HMLER-shEcad cells [3]: 2 fold
- IC50 [3]: 0.013 ± 0.002 µM

SMILES: [Cl][Au].c1ccc(P(c2ccccc2)c2ccccc2)cc1 [chloro(triphenylphosphine)gold(I)]
- IC50 [2]: 0.216 ± 0.003 µM
- fold less toxic towards HMLER and HMLER-shEcad cells than 1 ([2]; compared with 1): up to 3.8 fold
- IC50 [7]: > 250 µM
- IC50 [3]: 0.207 ± 0.005 µM
